Results published in ChEMBL document CHEMBL1926563, “Synthesis, antimicrobial, antimycobacterial and structure-activity relationship of substituted pyrazolo-, isoxazolo-, pyrimido- and mercaptopyrimidocyclohepta[b]indoles” (2012).
Converted amounts (≈) assume the structure as drawn. The source made the active and inactive calls. No cut-off for these calls is given here.

How the values were obtained:
Aspergillus niger [1] = assay: Antifungal activity against Aspergillus niger NCIM 596 after 48 hrs by disk diffusion method; format: functional; settings: NCIM 596, 48 h
Curvularia lunata [2] = assay: Antifungal activity against Curvularia lunata NCIM 716 assessed as zone of inhibition at 200 ug/disc after 48 hrs by disk diffusion method; format: functional; settings: NCIM 716, 48 h, read-out: DIZ
Fusarium solani [3] = assay: Antifungal activity against Fusarium solani NCIM 1330 assessed as zone of inhibition at 100 ug/disc after 48 hrs by disk diffusion method; format: functional; settings: NCIM 1330, 48 h, read-out: DIZ
Aspergillus niger [4] = assay: Antifungal activity against Aspergillus niger NCIM 596 assessed as zone of inhibition at 100 ug/disc after 48 hrs by disk diffusion method; format: functional; settings: NCIM 596, 48 h, read-out: DIZ
Staphylococcus aureus [5] = assay: Antibacterial activity against Staphylococcus aureus NCIM 5021 after 24 hrs by disk diffusion method; format: functional; settings: NCIM 5021, 24 h
Fusarium solani [6] = assay: Antifungal activity against Fusarium solani NCIM 1330 assessed as zone of inhibition at 200 ug/disc after 48 hrs by disk diffusion method; format: functional; settings: NCIM 1330, 48 h, read-out: DIZ
Curvularia lunata [7] = assay: Antifungal activity against Curvularia lunata NCIM 716 assessed as zone of inhibition at 100 ug/disc after 48 hrs by disk diffusion method; format: functional; settings: NCIM 716, 48 h, read-out: DIZ
Staphylococcus aureus [8] = assay: Antibacterial activity against Staphylococcus aureus NCIM 5021 assessed as zone of inhibition at 200 ug/disc after 24 hrs by disk diffusion method; format: functional; settings: NCIM 5021, 24 h, read-out: DIZ
Klebsiella pneumoniae [9] = assay: Antibacterial activity against Klebsiella pneumoniae NCIM 2957 after 24 hrs by disk diffusion method; format: functional; settings: NCIM 2957, 24 h
Fusarium solani [10] = assay: Antifungal activity against Fusarium solani NCIM 1330 after 48 hrs by disk diffusion method; format: functional; settings: NCIM 1330, 48 h
Bacillus subtilis [11] = assay: Antibacterial activity against Bacillus subtilis NCIM 2063 assessed as zone of inhibition at 100 ug/disc after 24 hrs by disk diffusion method; format: functional; settings: NCIM 2063, 24 h, read-out: DIZ
Bacillus subtilis [12] = assay: Antibacterial activity against Bacillus subtilis NCIM 2063 after 24 hrs by disk diffusion method; format: functional; settings: NCIM 2063, 24 h
Klebsiella pneumoniae [13] = assay: Antibacterial activity against Klebsiella pneumoniae NCIM 2957 assessed as zone of inhibition at 200 ug/disc after 24 hrs by disk diffusion method; format: functional; settings: NCIM 2957, 24 h, read-out: DIZ
Klebsiella pneumoniae [14] = assay: Antibacterial activity against Klebsiella pneumoniae NCIM 2957 assessed as zone of inhibition at 100 ug/disc after 24 hrs by disk diffusion method; format: functional; settings: NCIM 2957, 24 h, read-out: DIZ
Staphylococcus aureus [15] = assay: Antibacterial activity against Staphylococcus aureus NCIM 5021 assessed as zone of inhibition at 100 ug/disc after 24 hrs by disk diffusion method; format: functional; settings: NCIM 5021, 24 h, read-out: DIZ
[16] = system: Mycobacterium tuberculosis; assay: Antimycobacterial activity against Mycobacterium tuberculosis H37Rv after 7 days by resazurin microtiter plate assay; format: functional; settings: 168 h
Proteus vulgaris [17] = assay: Antibacterial activity against Proteus vulgaris NCIM 2027 assessed as zone of inhibition at 200 ug/disc after 24 hrs by disk diffusion method; format: functional; settings: NCIM 2027, 24 h, read-out: DIZ
Aspergillus niger [18] = assay: Antifungal activity against Aspergillus niger NCIM 596 assessed as zone of inhibition at 200 ug/disc after 48 hrs by disk diffusion method; format: functional; settings: NCIM 596, 48 h, read-out: DIZ
Bacillus subtilis [19] = assay: Antibacterial activity against Bacillus subtilis NCIM 2063 assessed as zone of inhibition at 200 ug/disc after 24 hrs by disk diffusion method; format: functional; settings: NCIM 2063, 24 h, read-out: DIZ
Curvularia lunata [20] = assay: Antifungal activity against Curvularia lunata NCIM 716 after 48 hrs by disk diffusion method; format: functional; settings: NCIM 716, 48 h
Proteus vulgaris [21] = assay: Antibacterial activity against Proteus vulgaris NCIM 2027 after 24 hrs by disk diffusion method; format: functional; settings: NCIM 2027, 24 h
Proteus vulgaris [22] = assay: Antibacterial activity against Proteus vulgaris NCIM 2027 assessed as zone of inhibition at 100 ug/disc after 24 hrs by disk diffusion method; format: functional; settings: NCIM 2027, 24 h, read-out: DIZ
[23] = system: Mycobacterium tuberculosis; assay: Antimycobacterial activity against Mycobacterium tuberculosis H37Rv at 1.5 to 50 ug/ml after 7 days by resazurin microtiter plate assay; format: functional, organism-based

Compound	MIC (Aspergillus niger [1])	zone of inhibition at 200 µg/disc (Curvularia lunata [2])	zone of inhibition at 100 µg/disc (Fusarium solani [3])	zone of inhibition at 100 µg/disc (Aspergillus niger [4])	MIC (Staphylococcus aureus [5])	zone of inhibition at 200 µg/disc (Fusarium solani [6])	zone of inhibition at 100 µg/disc (Curvularia lunata [7])	zone of inhibition at 200 µg/disc (Staphylococcus aureus [8])	MIC (Klebsiella pneumoniae [9])	MIC (Fusarium solani [10])	zone of inhibition at 100 µg/disc (Bacillus subtilis [11])	MIC (Bacillus subtilis [12])	zone of inhibition at 200 µg/disc (Klebsiella pneumoniae [13])	zone of inhibition at 100 µg/disc (Klebsiella pneumoniae [14])	zone of inhibition at 100 µg/disc (Staphylococcus aureus [15])	zone of inhibition at 200 µg/disc (Proteus vulgaris [17])	zone of inhibition at 200 µg/disc (Aspergillus niger [18])	zone of inhibition at 200 µg/disc (Bacillus subtilis [19])	MIC (Curvularia lunata [20])	zone of inhibition at 100 µg/disc (Proteus vulgaris [22])	further results
Clc1ccc2[nH]c3c(c2c1)CCCc1cnn(-c2ccccc2)c1-3	100 mg/L (≈ 300 µM)	38 mm	32 mm	30 mm	25 mg/L (≈ 74.9 µM)	39 mm	31 mm	34 mm	50 mg/L (≈ 150 µM)	200 mg/L (≈ 599 µM)	33 mm	25 mg/L (≈ 74.9 µM)	30 mm	28 mm	32 mm	31 mm	35 mm	32 mm	100 mg/L (≈ 300 µM)	29 mm	MIC [16]: 3.12 mg/L (≈ 9.35 µM); MIC (Proteus vulgaris [21]): 50 mg/L (≈ 150 µM)
CC(=O)N1CCN(c2ccc(OCC3COC(Cn4ccnc4)(c4ccc(Cl)cc4Cl)O3)cc2)CC1 (stereo unspecified) [KETOCONAZOLE]	6.25 mg/L (≈ 11.8 µM)	43 mm	36 mm	35 mm		40 mm	40 mm			12.5 mg/L (≈ 23.5 µM)							38 mm		6.25 mg/L (≈ 11.8 µM)		
Clc1ccc2[nH]c3c(c2c1)CCCc1conc1-3	100 mg/L (≈ 387 µM)	33 mm	33 mm	29 mm	50 mg/L (≈ 193 µM)	35 mm	31 mm	33 mm	100 mg/L (≈ 387 µM)	100 mg/L (≈ 387 µM)	31 mm	50 mg/L (≈ 193 µM)	29 mm	26 mm	32 mm	30 mm	32 mm	34 mm	100 mg/L (≈ 387 µM)	28 mm	MIC [16]: 3.12 mg/L (≈ 12.1 µM); MIC (Proteus vulgaris [21]): 200 mg/L (≈ 773 µM)
Sc1ncc2c(n1)-c1[nH]c3ccc(Cl)cc3c1CCC2	50 mg/L (≈ 166 µM)	21 mm	16 mm	15 mm	50 mg/L (≈ 166 µM)	19 mm	17 mm	18 mm	100 mg/L (≈ 331 µM)	100 mg/L (≈ 331 µM)	15 mm	50 mg/L (≈ 166 µM)	14 mm	12 mm	16 mm	13 mm	17 mm	17 mm	50 mg/L (≈ 166 µM)	11 mm	MIC [16]: 25 mg/L (≈ 82.8 µM); MIC (Proteus vulgaris [21]): 100 mg/L (≈ 331 µM)
Clc1ccc2[nH]c3c(c2c1)CCCc1c[nH]nc1-3	200 mg/L (≈ 776 µM)	38 mm	35 mm	32 mm	100 mg/L (≈ 388 µM)	39 mm	34 mm	36 mm	100 mg/L (≈ 388 µM)	200 mg/L (≈ 776 µM)	35 mm	100 mg/L (≈ 388 µM)	32 mm	30 mm	34 mm	33 mm	35 mm	37 mm	200 mg/L (≈ 776 µM)	31 mm	MIC [16]: 12.5 mg/L (≈ 48.5 µM); MIC (Proteus vulgaris [21]): 100 mg/L (≈ 388 µM)
O=C(N[C@H](CO)[C@H](O)c1ccc([N+](=O)[O-])cc1)C(Cl)Cl [CHLORAMPHENICOL]					6.25 mg/L (≈ 19.3 µM)			41 mm	12.5 mg/L (≈ 38.7 µM)		38 mm	6.25 mg/L (≈ 19.3 µM)	42 mm	37 mm	35 mm	44 mm		43 mm		42 mm	MIC (Proteus vulgaris [21]): 12.5 mg/L (≈ 38.7 µM)
Oc1ncc2c(n1)-c1[nH]c3ccc(Cl)cc3c1CCC2	50 mg/L (≈ 175 µM)	23 mm	17 mm	16 mm	50 mg/L (≈ 175 µM)	20 mm	19 mm	27 mm	100 mg/L (≈ 350 µM)	100 mg/L (≈ 350 µM)	25 mm	50 mg/L (≈ 175 µM)	25 mm	22 mm	26 mm	20 mm	19 mm	28 mm	50 mg/L (≈ 175 µM)	22 mm	MIC [16]: 3.12 mg/L (≈ 10.9 µM); MIC (Proteus vulgaris [21]): 100 mg/L (≈ 350 µM)
Cc1ccc2[nH]c3c(c2c1)CCCc1cnn(-c2ccccc2)c1-3		31 mm	30 mm	29 mm		34 mm	31 mm	30 mm			29 mm		28 mm	26 mm	27 mm	23 mm	30 mm	31 mm		21 mm	MIC [23]: inactive
